Reference: US20100222404A1, “INDAZOLE DERIVATIVE DIHYDROCHLORIDE” (ASAHI KASEI PHARMA CORPORATION, priority 2008, published 2010)

Key:
[1] = Test for measuring solubility (Test Example 1, saturated solution by HPLC); format: physicochemical; conditions: for solubility thermodynamic at 1 h: thermodynamic from solid, room temperature, read-out: Saturated solution concentration
Protocol: About 50 mg each of the “monohydrochloride salt” and the “dihydrochloride salt” were precisely weighed, and were each suspended in a solvent so as to obtain a concentration of 500 mg/ml, respectively. Each suspension was sonicated for 10 minutes, and then was shaken at room temperature for one hour. Subsequently, each of the supernatant of the suspension was subjected to centrifugal filtration (10° C., 3000 RPM, 20 minutes) using a centrifugal filter (Ultrafree-MC PTFE 0.2 μm, manufactured by Millipore, Inc.), to thereby prepare a saturated solution. Each of the saturated solutions was analyzed by HPLC, and the concentration of the saturated solution was calculated from the peak area.

[2] = Blood concentration measurement test (AUC after oral enteric capsule); format: in vivo, male beagle dogs; conditions: for AUC(0-inf): dog, compound 1 free form measured in blood plasma, read-out: AUCinf mean; for AUC(0-inf) / AUCinf CV (coefficient of variation): male beagle dogs, fasting, oral enteric capsule, 1 mg/kg as free form
Protocol: The “monohydrochloride salt” and the “dihydrochloride salt” were respectively filled in an enteric capsule (Eudragit L coat, No. 5) to an amount of administration of 1 mg/kg in terms of the “compound 1” in a free form. The capsules were forcibly orally administered to male beagle dogs (Oriental Yeast Co., Ltd.) under fasting. 0.5, 1, 2, 3, 4, 6, 8, 10 and 24 hours after the administration, about 1 mL of blood was collected from the cephalic vein under non-anesthesia conditions, with a 2.5-mL syringe through which a heparin sodium solution had been passed through in advance (equipped with a 23 G injection needle). The collected blood was cooled in ice, and the blood plasma was separated by a centrifugal operation. After a lapse of 6 hours from the administration, the dogs were fed with a usual amount of food. The concentration of the “compound 1” in a free form in the blood plasma was measured by the LC/MS/MS method in each case, and the AUC was calculated using the Non-Compartment model of WinNonlin software v5.0.1. (in the table, AUCinf means the “AUC obtained when the blood plasma concentration was extrapolated from zero to the infinity”, mean is the “average”, SD is the “standard deviation”, and CV is the “coefficient of variation”.)

[3] = Test for measuring solubility (Test Example 2, saturated solution by HPLC); format: physicochemical; conditions: room temperature; for solubility thermodynamic at 1 h: thermodynamic from solid, read-out: Saturated solution concentration
Protocol: The “dihydrochloride salt” was precisely weighed in the amounts indicated in Table 2, and 20 ml each of the solvent was added to the weighed samples. The samples were shaken for one hour at room temperature. After it was visually checked that the samples were not completely dissolved, the samples were centrifuged (10° C., 3000 RPM, 20 minutes), and the supernatant was filtered through a Membrane filter, to thereby produce saturated solutions. Each of the saturated solutions was analyzed by HPLC, and the concentration of the saturated solution was calculated from the peak area.

[4] = aqueous buffer, pH 6.8 Buffer solution (phosphate buffer solution)
[5] = saline or isotonic, Physiological saline, shaken one hour
[6] = simulated gastric fluid, pH 1.2 Buffer solution (1st fluid for dissolution test)

Row | solubility thermodynamic at 1 h [1, 4] [mg/mL] | Solubility compared with the monohydrochloride salt ([1]; results of Table 1) | solubility thermodynamic at 1 h [1, 5] [mg/mL] | solubility thermodynamic at 1 h [1, 6] [mg/mL] | solubility thermodynamic at 1 h ([1]; Water, shaken one hour) [mg/mL] | AUC(0-inf) [2] [ng·h/mL] | Variation of the AUC (CV) compared with the monohydrochloride salt ([2]; dogs, oral administration using enteric capsules) | AUCinf CV (coefficient of variation) [2] [%] | Saturated solution concentration ([3]; Ethanol, 0.1 g in 20 ml) [mg/mL] | solubility thermodynamic at 1 h ([3]; aqueous buffer, pH 4.0 Buffer solution (0.05 mol/L acetic acid/sodium acetate), 4 g in 20 ml) [mg/mL] | solubility thermodynamic at 1 h ([3]; aqueous buffer, pH 6.8 Buffer solution (2nd fluid for dissolution test), 4 g in 20 ml) [mg/mL] | solubility thermodynamic at 1 h ([3]; saline or isotonic, Physiological saline, 5 g in 20 ml) [mg/mL] | solubility thermodynamic at 1 h ([3]; simulated gastric fluid, pH 1.2 Buffer solution (1st fluid for dissolution test), 4 g in 20 ml) [mg/mL] | solubility thermodynamic at 1 h ([3]; Water, 5 g in 20 ml) [mg/mL] | SMILES
1 | 210 | significantly higher solubility | 125 | 128 | 189 | 1390 | smaller | 29.5 | 0.516 | 147 | 156 | 98.8 | 97.8 | 143 | Cc1n[nH]c2cc(OCCNC[C@H](O)c3cccc(NS(C)(=O)=O)c3)ccc12.Cl.Cl [dihydrochloride salt, (R)—N-[3-[2-[2-(3-methylindazol-6-yloxy)ethylamino]-1-hydroxyethyl]phenyl]methanesulfonamide dihydrochloride]
2 | 23.7 | – | 32.2 | 73.5 | 36.7 | 1110 | – | 70.0 | – | – | – | – | – | – | Cc1n[nH]c2cc(OCCNC[C@H](O)c3cccc(NS(C)(=O)=O)c3)ccc12.Cl [monohydrochloride salt, (R)—N-[3-[2-[2-(3-methylindazol-6-yloxy)ethylamino]-1-hydroxyethyl]phenyl]methanesulfonamide hydrochloride, reference compound]
